Laboratory results: US20100292209A1, “METHODS FOR IDENTIFYING COMPOUNDS THAT MODULATE NEUROTROPHIC FACTOR SIGNALING” (Massachusetts Institute of Technology, priority 2007, published 2010)

What was measured:
[1] = test system: PC12-ErbB4-GFP cells; assay: Nrg1-induced neurite outgrowth, live-cell imaging; type: cell-based
Experimental: Average outgrowth per cell was measured after 2 days incubation. C. Cells were pretreated with Iressa or Tarceva at various concentrations for 30 minutes followed by 20 ng/ml Nrg1. Mean outgrowth per cell was measured after 2 days incubation. D. Cells were pretreated with 2 μM Iressa or DMSO for 30 minutes followed by 20 ng/ml Nrg1 or NGF and lysed after 5 minutes. Cell lysates were immunoprecipitated by anti-ErbB4 antibody followed by western blotting with antibodies against phospho-tyrosine and ErbB4. Phosphor-ERK1/2 and total Erk2 levels were determined by direct western blotting with cell lysates.
C. […] Mean outgrowth per cell was measured after 2 days incubation.

[2] = test system: neurotrophin-3; details: cited from earlier work
[3] = test system: NGF-TrkA signaling; details: compared with K252a; cited from earlier work
[4] = test system: PC12-ErbB4-GFP cells; assay: NGF-induced neurite outgrowth, live-cell imaging; type: cell-based
[5] = test system: ERK/MAPK; assay: ERK/MAPK phosphorylation (western blot of cell lysates); type: cell-based
Experimental: (§1) Average outgrowth per cell was measured after 2 days incubation. C. Cells were pretreated with Iressa or Tarceva at various concentrations for 30 minutes followed by 20 ng/ml Nrg1. Mean outgrowth per cell was measured after 2 days incubation. D. […] Cell lysates were immunoprecipitated by anti-ErbB4 antibody followed by western blotting with antibodies against phospho-tyrosine and ErbB4. Phosphor-ERK1/2 and total Erk2 levels were determined by direct western blotting with cell lysates.
(§2) Cells were lysed with RIPA buffer (Pierce Technology, Rockford, Ill.) containing 1 tablet/10 ml protease inhibitor cocktail Complete Mini (Roche Applied Science). For phosphoprotein analysis, Halt Phosphatase Inhibitor Cocktail (Pierce Technology) was also included. Cell lysate was cleared by centrifuge at 15,000 rpm for 30 min followed by addition of LDS sample buffer (Invitrogen) for direct analysis or immunoprecipitated with specific primary antibodies and Protein A/G agarose (Pierce Technology) following the manufacturer's protocol. […] The membrane was probed with specific primary antibodies according to specified recipes provided by their vendors and then horse radish peroxidase-conjugated secondary antibody to mouse or rabbit IgG (GE Healthcare, Piscataway, N.J.). Target protein bands were detected with SuperSignal West Femto Max Sensitivity Substrate (Pierce Technology).

[6] = target: T1, ErbB4 (Homo sapiens, UniProt Q15303); assay: Iressa-conjugated agarose (iTrap) affinity capture of ErbB4 from cell lysate; type: binding; details: 10 uM free Iressa
T1 construct: expressed in transfected cells
Experimental: PC12-ErbB4-GFP cells were lysed with modified RIPA buffer at 4° C. for 10 min and the cell lysate was cleared by centrifugation. The cleared lysate (0.40 ml) was tumbled with Iressa (10 μM) or DMSO (1:1000 v/v) as indicated at 4° C. for 30 min before addition of the iTrap resin (10 μA). The resulting mixture was tumbled at 4° C. for 12 hours. The suspension was centrifuged and the supernatant was discarded. The resin was washed with the above modified RIPA buffer (1.0 ml) for four times. The captured proteins were separated by SDS-PAGE. The Western immunoblotting experiment was then performed using anti-ErbB4 antibody.
Agarose beads (iTrap) conjugated with a derivative of Iressa (Iressa—2, FIG. 6A) were used to examine the affinity of Iressa against ErbB4.

[7] = target: T1, ErbB4; assay: Nrg1-induced ErbB4 phosphorylation (immunoprecipitation, western blot); type: cell-based; details: 1 μM Iressa, 20 ng/ml Nrg1, lysed after 5 minutes
Experimental: as §1, §2

[8] = test system: PFC pyramidal neuron; details: PFC pyramidal neuron current assay; cited from earlier work
[9] = test system: cultured hippocampal neurons; details: cited from earlier work
[10] = test system: PC12-ErbB4; assay: Uptake of Alexa594-labeled Nrg1; type: cell-based; details: K252a 50 nM 12 hrs, then Alexa594-labeled Nrg1 30 min, compared to DMSO-treated cells
Experimental: (§3) A. Cells were treated without or with K252a (50 nM), K252a-Me (50 nM) for 30 min followed by treatment with or without 20 ng/mL Nrg1. Cells were lysed 12 hrs after Nrg1 treatment and analyzed by Western blot with anti-ErbB4 antibody. The bands that correspond to ErbB4 are indicated. B. Cells were treated without or with K252a (50 nM), K252a-Me (50 nM) for 12 hrs then fixed and immunostained with anti-ErbB4 and Alexa594 conjugated secondary antibody. GFP and Alexa594 fluorescent cell images were taken using a 20× objective. C. Cells were treated without or with K252a (50 nM) for 12 hrs followed by treatment of 20 ng/mL Alexa594-Nrg1 for 30 mins and fixed. GFP and Alexa594 fluorescent cell images were taken using a 40× objective.
(§4) This phenomenon, confirmed by immunofluorescence staining for ErbB4 in PC12-ErbB4 (FIG. 7B), might explain why K252a potentiate Nrg1-induced neurite outgrowth. To verify that increased level of ErbB4 does contribute to neuregulin signaling, we examined the Nrg1 uptake with Alexa594-labeled Nrg1 (FIG. 7C). Cells were treated with K252a for 12 hrs followed by Alexa594-labeled Nrg1 for 30 min.

[11] = test system: ErbB4; assay: ErbB4 level (western blot, immunofluorescence staining); type: cell-based, human; details: 50 nM, 12 hrs treatment, PC12-ErbB4
Experimental: as §3, §4

T1 sequence (Q15303 26-1292 isoform Q15303-3 limits assumed): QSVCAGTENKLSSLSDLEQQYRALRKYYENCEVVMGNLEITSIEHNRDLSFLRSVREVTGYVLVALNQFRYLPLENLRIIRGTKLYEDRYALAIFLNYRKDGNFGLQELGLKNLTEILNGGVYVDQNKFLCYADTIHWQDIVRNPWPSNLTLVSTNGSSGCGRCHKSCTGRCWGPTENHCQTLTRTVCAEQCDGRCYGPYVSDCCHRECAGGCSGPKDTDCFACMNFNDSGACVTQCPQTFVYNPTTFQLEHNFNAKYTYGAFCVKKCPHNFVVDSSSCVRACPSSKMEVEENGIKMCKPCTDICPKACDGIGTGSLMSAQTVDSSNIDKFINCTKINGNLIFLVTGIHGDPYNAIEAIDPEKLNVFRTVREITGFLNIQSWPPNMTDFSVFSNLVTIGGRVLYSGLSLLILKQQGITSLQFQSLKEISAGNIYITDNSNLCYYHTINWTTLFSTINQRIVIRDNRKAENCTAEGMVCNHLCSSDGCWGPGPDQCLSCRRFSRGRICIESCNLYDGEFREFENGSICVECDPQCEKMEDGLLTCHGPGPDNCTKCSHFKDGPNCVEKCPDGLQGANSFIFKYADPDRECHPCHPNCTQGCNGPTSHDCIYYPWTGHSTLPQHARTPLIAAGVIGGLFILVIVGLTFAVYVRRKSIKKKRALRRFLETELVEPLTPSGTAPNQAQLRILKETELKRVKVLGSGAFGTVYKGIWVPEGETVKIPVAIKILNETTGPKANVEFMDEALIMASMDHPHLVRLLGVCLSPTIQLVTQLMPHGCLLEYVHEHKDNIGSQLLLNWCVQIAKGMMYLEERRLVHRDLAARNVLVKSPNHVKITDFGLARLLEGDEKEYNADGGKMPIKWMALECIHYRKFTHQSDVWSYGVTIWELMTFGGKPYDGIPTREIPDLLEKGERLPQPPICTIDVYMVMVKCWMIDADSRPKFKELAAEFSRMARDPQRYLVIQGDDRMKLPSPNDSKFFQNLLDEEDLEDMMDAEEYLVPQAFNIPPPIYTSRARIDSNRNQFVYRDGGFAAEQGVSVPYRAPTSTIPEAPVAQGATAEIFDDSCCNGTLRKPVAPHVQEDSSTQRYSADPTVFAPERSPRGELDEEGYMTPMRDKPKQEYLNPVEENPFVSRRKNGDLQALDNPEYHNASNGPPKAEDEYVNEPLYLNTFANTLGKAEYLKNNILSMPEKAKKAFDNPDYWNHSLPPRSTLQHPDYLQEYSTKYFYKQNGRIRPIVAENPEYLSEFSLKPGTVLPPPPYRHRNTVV

With `O=C1NCc2c1c1c3ccccc3[nH]c1c1[nH]c3ccccc3c21` [K252c] the “effect on Nrg1-induced neurite outgrowth in kinase inhibitor screening” value ([1]; single dose (10 micromolar), 48 hours) was “potentiates”.

In the case of `CC12OC(CC1(O)C(=O)O)n1c3ccccc3c3c4c(c5c6ccccc6n2c5c31)C(=O)NC4` (centres unmarked) [K252b], the “trophic action of neurotrophin-3” value [2] is given as “potentiates” and the “potency on inhibiting NGF-TrkA signaling” value [3] is given as “much lower potency”.

For `C#Cc1cccc(Nc2ncnc3cc(OCCOC)c(OCCOC)cc23)c1` [Tarceva, N-(3-ethynylphenyl)-6,7-bis(2-methoxyethoxy)quinazolin-4-amine], the “inhibition of NGF-induced neurite outgrowth” value ([4]; concentration range of 100 nM˜1 (data not shown)) was “not inhibited” and the IC50 ([1]; read-out: IC50 of inhibition of Nrg1-induced neurite outgrowth) was 500 nM.

For `COc1cc2ncnc(Nc3cccc(Cl)c3)c2cc1OC` [AG1478, 4-(3-Chloroanilino-6,7-dimethoxy)-quinazoline], the “effect on Nrg1-induced neurite outgrowth” value ([1]; 1 μM AG1478, 20 ng/ml Nrg1, 2 days) was “can specifically inhibit”.

For `COc1cc2ncnc(Nc3ccc(F)c(Cl)c3)c2cc1OCCCN1CCOCC1` [Iressa, N-(3-chloro-4-fluoro-phenyl)-7-methoxy-6-(3-morpholin-4-ylpropoxy)quinazolin-4-amine], the “subsequent phosphorylation of ERK/MAPK (Nrg1-induced)” value ([5]; 20 ng/ml Nrg1) was “diminished”, the “NGF-induced MAPK activation” value ([5]; Iressa, 20 ng/ml NGF) was “did not affect” and the “precipitation of ErbB4 by iTrap in competition with free Iressa” value [6] was “attenuated”. For the same molecule, the “phosphorylation of ErbB4 receptors induced by Nrg1” value [7] was “inhibited”.

For `CNc1cc2c(Nc3cccc(Br)c3)ncnc2cn1` [PD158780], the “decrement in current caused by Nrg1” value [8] is listed as “reverses” and the “Nrg1 induced neurite outgrowth in cultured hippocampal neurons” value [9] is listed as “decreases”.

With NGF: Nerve Growth Factor, neurotrophin the “mean neurite length induced by NGF” value ([4]; 20 ng/ml, in the presence of DMSO, 48 hours) was 8.7±1.5 μm.

With `COC(=O)[C@@]1(O)C[C@H]2O[C@]1(C)n1c3ccccc3c3c4c(c5c6ccccc6n2c5c31)C(=O)NC4` [K252a, methyl (5R,6R,8R)-6-hydroxy-5-methyl-13-oxo-5,6,7,8,14,15-hexahydro-13H-5,8-epoxy-4b,8a,14-triazadibenzo[b,h]cycloocta[1,2,3,4-jkl]cyclopenta[e]-as-indacene-6-carboxylate] the “inhibition of NGF-induced neurite outgrowth” value ([4]; K252a at 10 nM) was “completely inhibited”, the Nrg1 uptake [10] was “significantly higher” and the “potentiation of Nrg1-induced neurite outgrowth” value ([1]; same concentration range (10 nM)) was “potentiated”. For the same molecule, the “level of ErbB4” value [11] was “significantly increased”.
